From patent US11352352B2, “Aminopyrimidine compound, preparation method therefor and use thereof” (BEIJING ADAMADLE BIOTECHNOLOGY LIMITED LIABILITY COMPANY, priority 2017, dated 2022)

Experiments:
Assay in all cases: Cell proliferation inhibition experiment, CellTiter-Glo (CTG) method
Type in all cases: cell-based
[1] = system: NCI-H1975; conditions: for IC50: Homo sapiens, NCI-H1975, 72 h, NCI-H1975 cells, CTG, 3 days; for A-431/NCI-H1975 Selectivity: ratio of A-431 IC50 to NCI-H1975 IC50
Description: (§1) Cell Proliferation Inhibition Experiment
(§2) Compounds were tested in the selected cell lines, and solvent is set as control, nine concentrations were detected with three parallel wells for each concentration.
(§3) 2. Reagents and Materials • 1) fetal bovine serum FBS (GIBCO, Cat #10099-141) • 2) CellTiter-Glo® Luminescent Cell Viability Assay (Promega, Cat #G7572) • 3) 96-well plate with flat clear bottom, black wall plates (Corning®, Cat #3340)
(§4) The first day: Incubation and plant of cells • 1) Cells in logarithmic growth phase were harvested and counted by cell counter. Cell viability was detected by trypan blue exclusion assay to ensure that the viability of each cell line was above 90%. • 2) Cell concentration was adjusted by diluting complete culture medium, and 90 μL cell suspension was added to a 96-well plate (T0 plate and drug plate to be tested) to make the cell density reach the specified concentration. • 3) Cells in 96-well plate were incubated overnight at condition of 37° C., 5% CO2 and 95% humidity.
(§5) The second day: Reading T0 plate • 1) 10 μL culture medium was added to T0 plate. • 2) CTG reagent was melt, while the cell plate was balanced to room temperature for 30 minutes. • 3) The same volume of CTG solution was added to each well. • 4) The cell plate was vibrated for 2 minutes on an orbital shaker to lyze the cells. • 5) The cell plate was placed at room temperature for 10 minutes to stabilize the cold light signal. • 6) The cold light value was read with EnVision.
(§6) Drug Addition • 1) Drug dilution. The compounds to be tested were dissolved and packaged, then a gradient elution was performed to obtain a solution diluted 10 times. • 2) Drug addition. […] drug solution was added into each well of the 96-well plate, which was inoculated cells, three parallel wells were set for each cell concentration.
(§7) The third day: reading plate at the terminal • 1) CTG reagent was melt, while the cell plate was balanced to room temperature for 30 minutes. • 2) The same volume of CTG solution was added to each well. • 3) The cell plate was vibrated for 2 minutes on an orbital shaker to lyze the cells. • 4) The cell plate was placed at room temperature for 10 minutes to stabilize the cold light signal. • 5) The cold light value was read with EnVision
(§8) Data were analyzed using GraphPad Prism 5.0 software, and non-linear S curve regression was used for fitting the data to give a dose-effect curve, IC50 value was calculated accordingly. Cell Survival Rate (%)=(Lumdrugs−Lumcontrol)/(Lumcell−Lumcontrol)×100%.

[2] = system: PC-9; conditions: Homo sapiens, PC-9, 72 h, PC-9 cells, 3 days
Description: as §1, §2, §3, §4, §5, §6, §7, §8

[3] = system: A-431; conditions: Homo sapiens, A-431, 72 h, A-431 cells, 3 days
Description: as §1, §2, §3, §4, §5
Drug Addition • 1) Drug dilution. The compounds to be tested were dissolved and packaged, then a gradient elution was performed to obtain a solution diluted 10 times. • 2) Drug addition. […] drug solution was added into each well of the 96-well plate, which was inoculated cells, three parallel wells were set for each cell concentration. The highest concentration of the compounds to be tested on A-431 was 30 μM, nine concentrations was set with 3 times dilution; while the highest concentration on NCI-H1975 and PC-9 was 1.111 μM, 9 concentrations was set with 3 times dilution. • 3) Culture. Cells in 96-well plates in which drugs have been added were cultured at condition of 37° C., 5% CO2 and 95% humidity for 3 days, and then CTG assay was performed respectively.
as §7, §8

C=CC(=O)Nc1cc(Nc2nccc(-c3ccc4c(cnn4C)c3)n2)c(OC)cc1N1CCC(N2CCN(C)CC2)CC1 [compound 230]
IC50 [1]: 68.2 nM
A-431/NCI-H1975 Selectivity [1]: 29.1
IC50 [2]: 59.4 nM
IC50 [3]: 1980 nM

C=CC(=O)Nc1cc(Nc2cc(-c3ccc4cnn(C)c4c3)ncn2)c(OC(F)F)cc1N1CCN(CCO)CC1 [compound 275]
IC50 [1]: 136 nM
A-431/NCI-H1975 Selectivity [1]: 24.3
IC50 [2]: 43.2 nM
IC50 [3]: 3300 nM

C=CC(=O)Nc1cc(Nc2cc(-c3ccc4cnn(C)c4c3)ncn2)c(OC)cc1N1CCC(N2CCN(C(C)C)CC2)CC1 [compound 157]
IC50 [1]: 32.7 nM
A-431/NCI-H1975 Selectivity [1]: 50.6
IC50 [2]: 11 nM
IC50 [3]: 1650 nM

C=CC(=O)Nc1cc(Nc2cc(-c3ccc4cnn(C)c4c3)ncn2)c(OC)cc1OCCN(C)C(C)C [compound 188]
IC50 [1]: 114 nM
A-431/NCI-H1975 Selectivity [1]: 24.5
IC50 [2]: 55.9 nM
IC50 [3]: 2790 nM

C=CC(=O)Nc1cc(Nc2cc(-c3ccc4c(cnn4C(C)C)c3)ncn2)c(OC)cc1N1CCC(C2CCN(C)CC2)CC1 [compound 86]
IC50 [1]: 91.6 nM
A-431/NCI-H1975 Selectivity [1]: 19.4
IC50 [2]: 76.4 nM
IC50 [3]: 1780 nM

C=CC(=O)Nc1cc(Nc2cc(-c3ccc4c(cnn4C)c3)ncn2)c(OC)cc1N(C)CCN1CCOCC1 [compound 38]
IC50 [1]: 75.9 nM
A-431/NCI-H1975 Selectivity [1]: 43.7
IC50 [2]: 89.7 nM
IC50 [3]: 3310 nM

C=CC(=O)Nc1cc(Nc2cc(-c3ccc4c(cnn4C)c3)ncn2)c(OC)cc1N1C[C@@H]2C[C@H]1CN2C [compound 25]
IC50 [1]: 54.7 nM
A-431/NCI-H1975 Selectivity [1]: 13.5
IC50 [2]: 67.8 nM
IC50 [3]: 736 nM

C=CC(=O)Nc1cc(Nc2cc(-c3ccc4cnn(C)c4c3)ncn2)c(OC)cc1N(C)CCN(CC)CC [compound 80]
IC50 [1]: 43 nM
A-431/NCI-H1975 Selectivity [1]: 13.6
IC50 [2]: 35.9 nM
IC50 [3]: 586 nM

C=CC(=O)Nc1cc(Nc2cc(-c3ccc4c(cnn4C)c3)ncn2)c(OC(F)(F)F)cc1N(C)CCN(C)C [compound 151]
IC50 [1]: 58.9 nM
A-431/NCI-H1975 Selectivity [1]: 34.7
IC50 [2]: 79.9 nM
IC50 [3]: 2050 nM

C=CC(=O)Nc1cc(Nc2cc(-c3ccc4c(cnn4C)c3)ncn2)c(OC)cc1N1CCN(C(=O)CN(C)C)CC1 [compound 135]
IC50 [1]: 15.4 nM
IC50 [2]: 17.7 nM
IC50 [3]: 756 nM

C=CC(=O)Nc1cc(Nc2cc(-c3ccc4c(cnn4C)c3)ncn2)c(OC)cc1OCCN(C)C(C)C [compound 186]
IC50 [1]: 76.1 nM
A-431/NCI-H1975 Selectivity [1]: 33.7
IC50 [2]: 50.2 nM
IC50 [3]: 2570 nM

C=CC(=O)Nc1cc(Nc2nccc(-c3ccc4c(cnn4C)c3)n2)c(OCC)cc1N(C)CCN(C)C [compound 242]
IC50 [1]: 26.7 nM
A-431/NCI-H1975 Selectivity [1]: 45.0
IC50 [2]: 28.1 nM
IC50 [3]: 1200 nM

C=CC(=O)Nc1cc(Nc2nccc(-c3ccc4c(cnn4CC)c3)n2)c(OCC)cc1N(C)CCN(C)C [compound 243]
IC50 [1]: 42.9 nM
A-431/NCI-H1975 Selectivity [1]: 50.8
IC50 [2]: 65.4 nM
IC50 [3]: 2180 nM

C=CC(=O)Nc1cc(Nc2nccc(-c3ccc4nc(C)sc4c3)n2)c(OC)cc1N(C)CCN(C)C [compound 255]
IC50 [1]: 46.4 nM
A-431/NCI-H1975 Selectivity [1]: 43.4
IC50 [2]: 30 nM
IC50 [3]: 2010 nM

C=CC(=O)Nc1cc(Nc2cc(-c3ccc4c(cnn4C)c3)ncn2)c(OC)cc1C(=O)N1CCN(C)CC1 [compound 12]
IC50 [1]: 53.1 nM
A-431/NCI-H1975 Selectivity [1]: 77.7
IC50 [2]: 56.9 nM
IC50 [3]: 4130 nM

C=CC(=O)Nc1cc(Nc2cc(-c3ccc4cnn(C)c4c3)ncn2)c(OC(F)F)cc1N1CCC(N(C)C)CC1 [compound 174]
IC50 [1]: 23.5 nM
A-431/NCI-H1975 Selectivity [1]: 56.4
IC50 [2]: 15.4 nM
IC50 [3]: 1330 nM

C=CC(=O)Nc1cc(Nc2cc(-c3ccc4c(cnn4C(C)C)c3)ncn2)c(OC)cc1N1CCC(N2CCN(C)CC2)CC1 [compound 84]
IC50 [1]: 34.4 nM
A-431/NCI-H1975 Selectivity [1]: 28.7
IC50 [2]: 27.5 nM
IC50 [3]: 988 nM
